From ChEMBL document CHEMBL1158868, “Bioactive and other sesquiterpenes from Chiloscyphus rivularis” (J Nat Prod, 1997)
In brackets after ≈: the same amount, converted by molar mass. Activity calls are given as the source filed them. No cut-off for these calls is given here.

What was measured:
Saccharomyces cerevisiae [1] = assay: Antimicrobial activity against rad52 gene deficient and DNA repair deficient yeast RS322; assay type: functional
A549 = assay: Cytotoxicity against human A549 cells; assay type: functional, cell-based
[2] = Cytotoxicity against human NCI60 cells; assay type: functional
Saccharomyces cerevisiae [3] = assay: Antimicrobial activity against rad gene expressing and DNA repair proficient wild type yeast RS188N; assay type: functional
Saccharomyces cerevisiae [4] = assay: Antimicrobial activity against rad52.top1 gene deficient yeast RS321; assay type: functional

**Q.** For `C=C(C)C(=O)[C@H]1CCC2=CC(=O)C[C@H](C)[C@]21C`, which IC12 (Saccharomyces cerevisiae [1]) is on record?
**A.** > 500 µg/mL

**Q.** Which IC12 (Saccharomyces cerevisiae [1]) does the source give for `C=C(C)C(=O)[C@H]1CC(=O)C2=CC(=O)C[C@H](C)[C@]21C` here?
**A.** > 500 µg/mL

**Q.** Which Activity (Saccharomyces cerevisiae [1]) does the source give for `C[C@H]1CCC=C2CC[C@H](C(=O)C(O)(CO)CO)[C@@]21C` here?
**A.** inactive

**Q.** Which IC50 (A549) does the source give for `C=C(CO)C(=O)[C@H]1CCC2=CCC[C@H](C)[C@]21C` here?
**A.** 2 µg/mL (≈ 8.53 µM)

**Q.** And the IC12 (Saccharomyces cerevisiae [1])?
**A.** 75 µg/mL

**Q.** And the GI50 [2]?
**A.** 10 µM

**Q.** What about the IC12 (Saccharomyces cerevisiae [3]) of the same molecule?
**A.** 88 µg/mL

**Q.** And the IC12 (Saccharomyces cerevisiae [4])?
**A.** > 1000 µg/mL

**Q.** Which IC12 (Saccharomyces cerevisiae [1]) does the source give for `C[C@H]1CC[C@@H](O)[C@]23CC[C@H](C(=O)O2)[C@]13C` [RIVULALACTONE] here?
**A.** > 500 µg/mL

**Q.** For `C[C@H]1CCC=C2CC[C@H](C(=O)C3(CO)CO3)[C@@]21C` (stereo partly specified), which Activity (Saccharomyces cerevisiae [1]) is on record?
**A.** inactive

**Q.** For `C=C(CO)C(=O)[C@H]1CCC2=CC(=O)C[C@H](C)[C@]21C`, which IC12 (Saccharomyces cerevisiae [1]) is on record?
**A.** > 500 µg/mL
